Test results reported in patent US20080279812A1, “Disease Prevention and Vaccination Prior to Thymic Reactivation” (Norwood Immunology, Ltd., priority 2003, published 2008).
Where a SMILES comes first, the peptide text is derived from it. [ ]: non-standard residue; d: D form. dPhe(4-Cl) = N[C@H](Cc1ccc(Cl)cc1)C(=O)O; d2Nal = N[C@H](Cc1ccc2ccccc2c1)C(=O)O; Lys(iPr) = CC(C)NCCCC[C@H](N)C(=O)O; NMeY = CN[C@@H](Cc1ccc(O)cc1)C(=O)O; d3Pal = N[C@H](Cc1cccnc1)C(=O)O

How the values were obtained:
[1] = test system: sex steroids; conditions: single injection of sufficient dose; cited from earlier work
[2] = test system: thymus, spleen and lymph node cell numbers; assay: Chemical castration compared to surgical castration, T cell regeneration after cyclophosphamide; format: in vivo; conditions: mice
Source text: FIG. 9: Changes in thymus (open bars), spleen (gray bars) and lymph node (black bars) cell numbers following treatment with cyclophosphamide, a chemotherapy agent, and surgical or chemical castration performed on the same day. Note the rapid expansion of the thymus in castrated animals when compared to the non-castrate (cyclophosphamide alone) group at 1 and 2 weeks post-treatment. In addition, spleen and lymph node numbers of the castrate group were well increased compared to the cyclophosphamide alone group. (n=34 per treatment group and time-point).
T cell Depletion Using Cyclophosphamide. Old mice (e.g., 2 years old) were injected with cyclophosphamide (200 mg/kg body wt over two days) and castrated.
FIG. 9 illustrates the use of chemical castration compared to surgical castration in enhancement of T cell regeneration. […] The enhancing effects were equivalent on thymic expansion and also the recovery of spleen and lymph node. The kinetics of chemical castration are slower than surgical, that is, mice take about 3 weeks longer to decrease their circulating sex steroid levels. However, chemical castration is still as effective as surgical castration and can be considered to have an equivalent effect.

[3] = G-CSF with or without Lupron in small cell lung cancer patients on chemotherapy (Example 26); format: in vivo, human
[4] = GnRH analog before allogeneic BMT (Example 27); format: in vivo, human
Method: In a randomized unblinded study 20 patients are treated with a GnRH analog prior to receiving a BMT. This patient group is to a control group (n=19) who also undergo a BMT, but will not receive a GnRH analog.
All patients receive an allogeneic graft from a matched donor in accordance with accepted medical techniques (Lincz et al., (2001) Leuk. and Lymph. 40: 373).
Prior to transplant, the BM from all patients is ablated using standard ablating drugs and techniques (Segeren et al., (1999). Br. J. Haem. 105:127-130).
Blood samples from each patient are drawn at days −21, −2, 0, 1, 2, 3, 7, 10, 14 and 21. The blood samples are then evaluated for WBC, neutrophils, T cells (by FACS analysis, as described in detail above), granulocytes levels, and hematocrit, using the methods described in detail elsewhere herein, as well as methods well known to those skilled in the art.
Additionally, all patients are monitored for infection rates (including viral infection), the use of antibiotics, febrile neutropenia, and mean days of severe neutropenia (ANC<0.5×10^9/L). These analyses are performed as outlined above, with the patients being followed up at 1 month, 3 months, 6 months and 9 months from the date of transplant.

[5] = GnRH agonist in metastatic prostate cancer, haemopoiesis and neutrophil count (Example 28); format: in vivo, human; conditions: within the first 14 days of therapy
Method: All patients also received an anti-androgen drug. Cosudex® may also be given (5 mg/day or 50 mg/day orally) for 1 month. All patients undergo a Full Blood Analysis (FBA) prior to the commencement of therapy. FBA involves standard pathology analysis of lymphocytes, white blood cells, hematocrit and red blood cell content. In addition, analysis of immunological parameters including T cell stimulation, cytokine production, immune cell subsets and TREC analysis are performed. Additionally, blood samples from each patient are drawn at days −2, 0, 1, 2, 3, 7, 10, 14, 21, and 28, and monthly thereafter for 6 months. The blood samples are then evaluated for WBC, neutrophils, T cells (by FACS analysis, as described in detail above), granulocytes levels, and hematocrit, using the methods described in detail elsewhere herein, as well as methods well known to those skilled in the art.

[6] = test system: H1N1 strains of Influenza; format: in vivo, human; conditions: patients in all groups, after influenza vaccination
[7] = test system: sex steroids; conditions: 30 mg injection; cited from earlier work
[8] = test system: thymic cellularity; assay: IL-7 administration with or without castration in allogeneic HSCT recipients, thymic cellularity; format: in vivo, mice
Source text: Mice and HSCT. Male C57BL/6J (B6, H-2b), C3FeB6F1/J([B6 3 C3H]F1; H-2b/k), B10.BR (H-2k), B6D2F1/J (H-2b/d), CBA/J (H-2k), Balb/c (H2-d), IL7−/− and KGF−/− mice were obtained from the Jackson Laboratory (Bar Harbor, Me.) and used in experiments when they were between 8 and 12 weeks of age. KGF−/− and IL7−/− were used between 4 and 7 months of age. HSCT protocols were approved by the Memorial Sloan-Kettering Cancer Center Institutional Animal Care and Use Committee. The BM cells were removed aseptically from femurs and tibias. Donor BM was depleted of T cells by incubation with anti-Thy-1.2 for 30 mins. at 4° C. followed by incubation with Low-TOX-M rabbit complement (Cedarlane Laboratories, Hornby, ON, Canada) for 1 hour at 37° C. Splenic T cells (for GVHD analysis) were obtained by purification over a nylon wool column followed by red cell removal with ammonium chloride red cell lysis buffer. Cells (5×10^6 BM cells with or without splenic T cells and leukemia cells) were resuspended in Dulbecco modified essential medium (Life Technologies, Grand Island, N.Y.) and transplanted by tail vein infusion (0.25 mL total volume) into lethally irradiated recipients on day 0. Prior to transplantation, on day 0, recipients received 1300 cGy total body irradiation (^137Cs source) as split dose with 3 hours between doses (to reduce gastrointestinal toxicity). Mice were housed in sterilized microisolator cages and received normal chow and autoclaved hyperchlorinated drinking water (pH 3.0).
Administration of IL-7. IL-7 were either given from days 0 to 13 or 21 to 27 intraperitoneally at 10 μg/day for immune reconstitution studies. PBS was injected into control mice at the same time-points.
Flow Cytometric Analysis. BM cells, splenocytes or thymocytes were washed in FACS buffer (phosphate buffered saline (PBS)/2% bovine serum albumin (BSA)/0.1% azide) and 1-3×10^6 cells were incubated for 30 mins. at 4° C. with CD16/CD32 FcR block. Cells were then incubated for 30 mins. at 4° C. with primary antibodies and washed twice with FACS buffer. Where necessary, cells were incubated with conjugated Streptavidin for a further 30 mins. at 4° C. The stained cells were resuspended in FACS buffer and analyzed on a FACSCalibur™ flow cytometer (Becton Dickinson, San Jose, Calif.) with CellQuest™ software.

[9] = test system: IL-7-dependent murine pre-B cell line 2E8; assay: Thymidine incorporation proliferation assay with IL-7-dependent pre-B cell line; format: cell-based; conditions: 2E8 cell line
Method: Tissue culture medium consisted of RPMI 1640 supplemented with 10% heat inactivated fetal calf serum, 100 U/mL penicillin, […] streptomycin, and 2 mM L-glutamine (as well as […] 2-mercaptoethanol for the culture of 32Dp210 cells and proliferation assays).

[10] = cited from earlier work

CC(=O)N[C@H](Cc1ccc2ccccc2c1)C(=O)N[C@H](Cc1ccc(Cl)cc1)C(=O)N[C@H](Cc1cccnc1)C(=O)N[C@@H](CO)C(=O)N(C)[C@@H](Cc1ccc(O)cc1)C(=O)N[C@H](CC(N)=O)C(=O)N[C@@H](CC(C)C)C(=O)N[C@@H](CCCCNC(C)C)C(=O)N1CCC[C@H]1C(=O)N[C@H](C)C(N)=O [Abarelix, abarelix] (Ac-[d2Nal][dPhe(4-Cl)][d3Pal]S[NMeY][dN]L[Lys(iPr)]P[dA]-NH2)
time to castration [1]: 5 to 8 days

CCNC(=O)[C@@H]1CCCN1C(=O)[C@H](CCCN=C(N)N)NC(=O)[C@H](CC(C)C)NC(=O)[C@@H](Cc1c[nH]c2ccccc12)NC(=O)[C@H](Cc1ccc(O)cc1)NC(=O)[C@H](CO)NC(=O)[C@H](Cc1c[nH]c2ccccc12)NC(=O)[C@H](Cc1cnc[nH]1)NC(=O)[C@@H]1CCC(=O)N1 [Deslorelin]
additional time to decrease circulating sex steroid levels versus surgical castration [2]: about 3 weeks
rate of regeneration post-cyclophosphamide treatment compared to surgical castration ([2]; injected for four weeks): comparable rate of regeneration
enhancing effects on thymic expansion and recovery of spleen and lymph node versus surgical castration ([2]; post-cyclophosphamide): equivalent

CCNC(=O)[C@@H]1CCCN1C(=O)[C@H](CCCNC(=N)N)NC(=O)[C@H](CC(C)C)NC(=O)[C@@H](CC(C)C)NC(=O)[C@H](Cc1ccc(O)cc1)NC(=O)[C@H](CO)NC(=O)[C@H](Cc1c[nH]c2ccccc12)NC(=O)[C@H](Cc1c[nH]cn1)NC(=O)[C@@H]1CCC(=O)N1 [Lupron®, leuprolide acetate]
results versus higher Lupron dosage (Group 2) ([3]; G-CSF plus low dose Lupron 11.25 mg (Group 3)): not statistically different
results versus Group 2 ([3]; Lupron 22.5 mg on day 14 pre-chemotherapy (Group 4)): not statistically different
infection rates between the 2 groups ([4]; 3, 6 and 9 months from transplant): statistically different
WBC counts, mean days of severe Neutropenia (ANC <500/mm^3) and febrile neutropenia versus non-treated group ([4]; up to day 21 from transplantation): clinically and statistically significant reduction
incidence of viral and other infection rates between the two groups ([4]; up to month 1): not be statistically significant
patients with an increase in haemopoiesis (T cell analysis) and neutrophil count versus baseline [5]: approximately 70%
hemagglutination-inhibition antibody titer versus prior to therapy [6]: higher hemagglutination-inhibition antibody titer
duration of sex steroid ablation [7]: four months

IL-7: Recombinant human IL-7 provided by Cytheris
thymic cellularity, combined castration and IL-7 versus castrated group ([8]; day 14 after allo-HSCT): no significant difference
thymic cellularity, combined castration and IL-7 versus control ([8]; day 14 after allo-HSCT): significantly more cells
thymic cellularity, IL-7 treated sham-castrated versus PBS treated sham-castrated ([8]; day 14 after allo-HSCT, 10 μg/day i.p. days 0-13): no difference
thymic cellularity, IL-7 alone group versus control group ([8]; day 28 after allo-HSCT, IL-7 days 21-27): significantly higher than the control group
effect of combination of IL-7 treatment and castration on thymic cellularity ([8]; day 28 after allogeneic HSCT): additive effect
proliferative effect on murine cells [9]: equal to murine IL-7

B1: G-CSF: granulocyte colony stimulating factor, Neupogen (Amgen) (protein, UniProt P09919 31-207, looked up)
Granulocyte …: TPLGPASSLPQSFLLKCLEQVRKIQGDGAALQEKLVSECATYKLCHPEELVLLGHSLGIPWAPLSSCPSQALQLAGCLSQLHSGLFLYQGLLQALEGISPELGPTLDTLQLDVADFATTIWQQMEELGMAPALQPTQGAMPAFASAFQRRAGGVLVASHLQSFLEVSYRVLRHLAQP
modifications: filgrastim, N-terminal Met
neutrophils ([10]; other Phase I/II trials): measurable increases in neutrophils
incidence of infection (febrile neutropenia, infection rates, in-patient hospitalization, antibiotic use) ([10]; small cell lung cancer, 4-8 μg/kg/day s.c. days 4-17 after chemotherapy, placebo-controlled): clinically and statistically significant decrease

B2: Neulasta®: Amgen product given as single SC dose on day 2 of each chemotherapy cycle; called GM-CSF in the text (protein, UniProt P09919 31-207, looked up)
Granulocyte …: TPLGPASSLPQSFLLKCLEQVRKIQGDGAALQEKLVSECATYKLCHPEELVLLGHSLGIPWAPLSSCPSQALQLAGCLSQLHSGLFLYQGLLQALEGISPELGPTLDTLQLDVADFATTIWQQMEELGMAPALQPTQGAMPAFASAFQRRAGGVLVASHLQSFLEVSYRVLRHLAQP
modifications: pegfilgrastim: PEGylated, N-terminal Met
notes: called GM-CSF in the text
rates of febrile Neutropenia ([10]; both studies): 10-20%
mean days of severe Neutropenia ([10]; metastatic breast cancer, administered day 2 of chemotherapy cycle, both studies): approximately 1.7 days
